Experimental data: the Kinase Knowledgebase extract (Sharma et al. 2016)
Converted amounts (≈) assume the structure as drawn.

Columns and labels:
EGFR (human) [1] = target: EGFR (human) (UniProt P00533); conditions: mcf-7
EGFR (human) [2] = target: EGFR (human) (UniProt P00533); conditions: a431
EGFR (human) [3] = target: EGFR (human) (UniProt P00533); conditions: sw-620
EGFR (human) [4] = target: EGFR (human) (UniProt P00533); conditions: mb435
EGFR (human) [5] = target: EGFR (human) (UniProt P00533); conditions: a2780s
EGFR (human) [6] = target: EGFR (human) (UniProt P00533); conditions: lox
EGFR = EGFR (UniProt P00533)
Sequence of EGFR (P00533 whole entry, looked up): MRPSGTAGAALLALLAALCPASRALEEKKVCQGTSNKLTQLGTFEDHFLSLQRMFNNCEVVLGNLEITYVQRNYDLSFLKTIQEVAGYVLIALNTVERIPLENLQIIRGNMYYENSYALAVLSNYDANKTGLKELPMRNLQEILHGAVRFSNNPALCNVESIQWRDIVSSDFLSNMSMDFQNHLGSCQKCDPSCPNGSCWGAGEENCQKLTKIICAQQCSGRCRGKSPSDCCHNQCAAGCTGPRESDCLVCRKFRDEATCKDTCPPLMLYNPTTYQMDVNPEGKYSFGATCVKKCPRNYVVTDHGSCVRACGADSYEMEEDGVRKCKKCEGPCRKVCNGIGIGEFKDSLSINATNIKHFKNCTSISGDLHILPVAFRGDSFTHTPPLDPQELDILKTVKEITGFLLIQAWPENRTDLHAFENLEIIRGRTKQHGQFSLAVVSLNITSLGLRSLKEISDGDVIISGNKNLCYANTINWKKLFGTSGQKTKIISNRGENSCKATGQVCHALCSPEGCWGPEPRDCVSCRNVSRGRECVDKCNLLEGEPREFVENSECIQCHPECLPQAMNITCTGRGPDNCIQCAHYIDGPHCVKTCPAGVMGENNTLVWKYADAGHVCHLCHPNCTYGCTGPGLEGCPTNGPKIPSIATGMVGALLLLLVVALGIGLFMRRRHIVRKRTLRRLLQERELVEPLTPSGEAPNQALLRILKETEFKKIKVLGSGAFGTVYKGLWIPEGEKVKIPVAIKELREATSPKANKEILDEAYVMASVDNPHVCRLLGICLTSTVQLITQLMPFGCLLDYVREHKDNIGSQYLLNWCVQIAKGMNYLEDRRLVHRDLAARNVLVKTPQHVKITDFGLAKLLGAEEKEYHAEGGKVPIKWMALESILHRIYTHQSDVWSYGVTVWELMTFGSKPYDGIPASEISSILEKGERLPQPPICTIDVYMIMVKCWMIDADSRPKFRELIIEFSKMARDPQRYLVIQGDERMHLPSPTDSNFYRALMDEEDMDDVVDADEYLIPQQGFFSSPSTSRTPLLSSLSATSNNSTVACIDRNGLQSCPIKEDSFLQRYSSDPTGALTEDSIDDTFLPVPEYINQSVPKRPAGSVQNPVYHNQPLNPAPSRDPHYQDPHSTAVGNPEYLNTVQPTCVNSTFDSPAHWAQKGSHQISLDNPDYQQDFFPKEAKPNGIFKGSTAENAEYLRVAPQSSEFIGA

EGFR (human) [7] = target: EGFR (human) (UniProt P00533); conditions: a2780ddp
EGFR (human) [8] = target: EGFR (human) (UniProt P00533)
EGFR (human) [9] = target: EGFR (human) (UniProt P00533); conditions: skbr3

Sequence of EGFR (human) (P00533 whole entry, looked up): as above

SMILES	IC50 (EGFR (human) [1])	IC50 (EGFR (human) [2])	IC50 (EGFR (human) [3])	IC50 (EGFR (human) [4])	IC50 (EGFR (human) [5])	IC50 (EGFR (human) [6])	IC50 (EGFR)	IC50 (EGFR (human) [7])	IC50 (EGFR (human) [8])	IC50 (EGFR (human) [9])
C=C(CN1CCOCC1)C(=O)Nc1ccc2ncnc(Nc3cccc(Br)c3)c2c1	17 µg/mL (≈ 36.3 µM)	0.6 µg/mL (≈ 1.28 µM)	5.5 µg/mL (≈ 11.7 µM)	4.5 µg/mL (≈ 9.61 µM)	0.8 µg/mL (≈ 1.71 µM)	3.9 µg/mL (≈ 8.33 µM)	0.005 nM	4 µg/mL (≈ 8.54 µM)	–	–
CSSC(C)C(=O)Nc1ccc2ncnc(Nc3cccc(Br)c3)c2c1 (centres undefined)	–	–	–	–	–	–	–	–	0.84 nM	–
O=C(/C=C/CBr)Nc1ccc2ncnc(Nc3cccc(Br)c3)c2c1	–	–	–	–	–	–	0.01 nM	–	–	–
CCN(CC)C/C=C/C(=O)Nc1ccc2ncnc(Nc3cccc(Br)c3)c2c1	59 µg/mL (≈ 130 µM)	0.01 µg/mL (≈ 0.022 µM)	52 µg/mL (≈ 114 µM)	45 µg/mL (≈ 99 µM)	22 µg/mL (≈ 48.4 µM)	46 µg/mL (≈ 101 µM)	0.075 nM	43 µg/mL (≈ 94.6 µM)	–	< 0.01 µg/mL
